Earlier results in patent publication US8889636B2, “Anti-microbial compositions” (Biotelliga Holdings Limited, priority 2010, dated 2014).
≈ marks a conversion by molar mass, not a printed value.

Assays:
Candidia albacans = conditions: modest antifungal activity
[1] = system: HIV-1 regulatory protein and its viral RNA binding site

SMILES: CCC(C)CC(C)/C=C(/C=C(C)/C=C/C=C/C=C/C=C/C=C/c1cc2c(c(=O)o1)[C@H](O)[C@@H](O)[C@H](C(O)C(O)CO)O2)C(=O)O (some centres unmarked) [Orevactaene]
- MIC (Candidia albacans): 250 µg/mL (≈ 408 µM)
- Inhibition of binding of HIV-1 regulatory protein and its viral RNA binding site [1]: found to inhibit binding
